Laboratory results: PubChem BioAssay (NCI)
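The compound was tested at five concentrations on cells cultured in 96-well plates, with a 48-hour exposure period. GI50 is the concentration that inhibits growth by half. TGI: concentration producing complete growth inhibition.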

What was measured:
Assay in all cases: NCI tumour cell line growth inhibition, 48 h
[1] = tested on: MCF7 breast
[2] = tested on: A498 renal
[3] = tested on: SK-MEL-28 melanoma
[4] = tested on: ACHN renal
[5] = tested on: SF-539 CNS
[6] = tested on: SNB-19 CNS
[7] = tested on: PC-3 prostate
[8] = tested on: SK-MEL-2 melanoma
[9] = tested on: MDA-MB-435
[10] = tested on: CAKI-1 renal
[11] = tested on: NCI-H226 lung
[12] = tested on: HL-60(TB) leukemia
[13] = tested on: SNB-75 CNS
[14] = tested on: K-562 leukemia
[15] = tested on: 786-0 renal
[16] = tested on: LOX IMVI melanoma
[17] = tested on: OVCAR-5 ovarian
[18] = tested on: SN12C renal
[19] = tested on: HCC-2998 colon
[20] = tested on: SF-295 CNS
[21] = tested on: NCI-H460 lung
[22] = tested on: OVCAR-3 ovarian
[23] = tested on: IGROV1 ovarian
[24] = tested on: RXF 393 renal
[25] = tested on: MDA-MB-231 breast
[26] = tested on: HOP-62 NSCLC
[27] = tested on: COLO 205 colon
[28] = tested on: NCI-H23 lung
[29] = tested on: UACC-62 melanoma
[30] = tested on: RPMI-8226 leukemia
[31] = tested on: HCT-15 colon
[32] = tested on: SK-MEL-5 melanoma
[33] = tested on: KM12 colon
[34] = tested on: TK-10 renal
[35] = tested on: SR leukemia
[36] = tested on: UACC-257 melanoma
[37] = tested on: HT29 colon
[38] = tested on: U251 CNS
[39] = tested on: BT-549 breast
[40] = tested on: MDA-MB-468 breast
[41] = tested on: MOLT-4 leukemia
[42] = tested on: SK-OV-3 ovarian
[43] = tested on: SF-268 CNS
[44] = tested on: UO-31 renal
[45] = tested on: A549 NSCLC
[46] = tested on: EKVX NSCLC
[47] = tested on: MALME-3M melanoma
[48] = tested on: HS 578T breast
[49] = tested on: M14 melanoma

Structure (SMILES): CSc1ccc(NC(=O)c2ccc3nn(/C(C#N)=C/c4ccccn4)nc3c2)cc1
- GI50 [1]: 971 nM
- TGI [1]: 2470 nM
- GI50 [2]: 1900 nM
- TGI [2]: 3710 nM
- GI50 [3]: 1670 nM
- TGI [3]: 3050 nM
- GI50 [4]: 1550 nM
- TGI [4]: 2880 nM
- GI50 [5]: 1670 nM
- TGI [5]: 3040 nM
- GI50 [6]: 1850 nM
- TGI [6]: 4260 nM
- GI50 [7]: 1880 nM
- TGI [7]: 3970 nM
- GI50 [8]: 1880 nM
- TGI [8]: 3530 nM
- GI50 [9]: 1540 nM
- TGI [9]: 3190 nM
- GI50 [10]: 1070 nM
- TGI [10]: 2350 nM
- GI50 [11]: 1980 nM
- TGI [11]: 4730 nM
- GI50 [12]: 626 nM
- TGI [12]: 3750 nM
- GI50 [13]: 1420 nM
- TGI [13]: 4260 nM
- GI50 [14]: 681 nM
- TGI [14]: 5050 nM
- GI50 [15]: 1700 nM
- TGI [15]: 3130 nM
- GI50 [16]: 1230 nM
- TGI [16]: 2520 nM
- GI50 [17]: 1590 nM
- TGI [17]: 3070 nM
- GI50 [18]: 1870 nM
- TGI [18]: 3970 nM
- GI50 [19]: 1650 nM
- TGI [19]: 3010 nM
- GI50 [20]: 1730 nM
- TGI [20]: 3290 nM
- GI50 [21]: 1880 nM
- TGI [21]: 3950 nM
- GI50 [22]: 991 nM
- TGI [22]: 2640 nM
- GI50 [23]: 1740 nM
- TGI [23]: 3360 nM
- GI50 [24]: 1240 nM
- TGI [24]: 2510 nM
- GI50 [25]: 1520 nM
- TGI [25]: 2970 nM
- GI50 [26]: 1950 nM
- TGI [26]: 3870 nM
- GI50 [27]: 1720 nM
- TGI [27]: 3300 nM
- GI50 [28]: 1570 nM
- TGI [28]: 2990 nM
- GI50 [29]: 1620 nM
- TGI [29]: 3060 nM
- GI50 [30]: 1770 nM
- TGI [30]: 5710 nM
- GI50 [31]: 1150 nM
- TGI [31]: 2510 nM
- GI50 [32]: 1680 nM
- TGI [32]: 3110 nM
- GI50 [33]: 2070 nM
- TGI [33]: 4440 nM
- GI50 [34]: 1750 nM
- TGI [34]: 3210 nM
- GI50 [35]: 1150 nM
- TGI [35]: 7600 nM
- GI50 [36]: 1640 nM
- TGI [36]: 3170 nM
- GI50 [37]: 1870 nM
- TGI [37]: 4510 nM
- GI50 [38]: 1590 nM
- TGI [38]: 3170 nM
- GI50 [39]: 1670 nM
- TGI [39]: 3110 nM
- GI50 [40]: 1080 nM
- TGI [40]: 2590 nM
- GI50 [41]: 796 nM
- TGI [41]: 4630 nM
- GI50 [42]: 2720 nM
- TGI [42]: 6960 nM
- GI50 [43]: 2360 nM
- TGI [43]: 6210 nM
- GI50 [44]: 1200 nM
- TGI [44]: 2430 nM
- GI50 [45]: 2340 nM
- TGI [45]: 5990 nM
- GI50 [46]: 1540 nM
- TGI [46]: 3010 nM
- GI50 [47]: 1450 nM
- TGI [47]: 2830 nM
- GI50 [48]: 2200 nM
- TGI [48]: 7680 nM
- GI50 [49]: 1780 nM
- TGI [49]: 3300 nM
